Data reported in patent publication US20210338719A1 (SOCIETE DES PRODUITS NESTLE S.A., priority 2017, published 2021).

Assay: Oxidation of LC-PUFAs caused by iron source
Type: physicochemical
Details: iron source in composition containing LC-PUFAs

Compound	Oxidation of LC-PUFAs
O.O.O.O.O.O.O.O=S(=O)([O-])[O-].[Fe+2] [ferrous sulphate heptahydrate]	significant oxidation of LC-PUFAs
O.O=S(=O)([O-])[O-].[Fe+2] [ferrous sulphate monohydrate]	no significant oxidation of LC-PUFAs
